Here are results for 17 compounds from US20080200473A1, “Imidazo [1,2-a]Pyridine Compounds, Compositions, Uses and Methods Thereto” (Ferrer Internacional, S.A., priority 2004, published 2008).

For experiment [1], the system named is α1-GABAA receptor. The experiment can be described thus: Ligand-binding assay, competitive with radiolabeled flumazenil, cerebellum membranes. Conditions: Affinity for α1-GABAA receptor, rat cerebellum membranes, radiolabeled flumazenil 1 nM; for % Inhibition 10^−5M: 10^-5M test compound; for % Inhibition 10^−7M: 10^-7M test compound. The procedure:
(§1) Ligand-binding assays. Determination of the affinity of test compounds for α1- and α2-GABAA receptor.
(§2) Male Sprague-Dawley rats weighing 200-250 g at the time of experiment were used. After decapitation of the animal, the cerebellum (tissue that mostly contains α1-GABAA receptor) and spinal cord (tissue that mostly contains α2-GABAA receptor) were removed. The membranes were prepared according to the method by J. Lameh et al. (Prog. Neuro-Psychopharmacol. Biol. Psychiatry, 24, 979-991, 2000) and H. Noguchi et al. (Eur. J. Pharm., 434, 21-28, 2002). Once the tissues weighed, they were suspended in 50 mM Tris.HCl (pH 7.4), 1:40 (w/v), or sucrose 0.32 M in the case of spinal cord, homogenized and then centrifuged at 20,000 g for 10 min at 7° C. twice. The resulting pellet was resuspended under the same conditions and centrifuged again. The pellet was finally resuspended on a minimum volume and kept at −80° C. overnight. On the next day, the process was repeated until the final pellet was resuspended at a ratio of 1:10 (w/v) in the case of cerebellum and at a ratio of 1:5 (w/v) in the case of spinal cord.
(§3) Affinity was determined by competitive tests using radiolabeled flumazenil as ligand. The tests were performed according to the methods described by S. Arbilla et al. (Eur. J. Pharmacol., 130, 257-263, 1986); and Y. Wu et al. (Eur. J. Pharmacol., 278, 125-132, 1995) using 96-well microtiter plates. The membranes containing the study receptors, flumazenil (radiolabeling at a final concentration of 1 nM) and ascending concentrations of test compounds (in a total volume of 230 μL in 50 mM [ph 7.4] Tris.HCl buffer) were incubated. Simultaneously, the membranes were only incubated with the radiolabeled flumazenil (total binding, 100%) and in the presence of an elevated concentration of unradiolabeled flumazenil (non-specific binding, % estimation of radiolabeled ligand). The reactions started on adding the radiolabeled ligand followed by incubation for 60 minutes at 4° C. At the end of the incubation period, 200 μL of reaction were transferred to a multiscreen plate (Millipore) and filtered using a vacuum manifold and then washed three times with cold test buffer. The multiscreen plates were equipped with a GF/B filter that retained the membranes containing the receptors and the radiolabeled ligand which has been bound to the receptors. After washing, the plates were left till dry. Once dried, scintillation liquid was added and left under stirring overnight. The next day the plates were counted using a Perkin-Elmer Microbeta scintillation counter.
(§4) For analysis of the results the percentage of specific binding for every concentration of test compound was calculated as follows:
(§5) % specific binding=(X−N/T−N)×100
(§6) where, X: amount of bound ligand for every concentration of compound. T: total binding, maximum amount bound to the radiolabeled ligand. N: non-specific binding, amount of radiolabeled ligand bound in a non-specific way irrespective of the receptor used.
(§7) Every concentrations of compound were tested in triplicate and their mean values were used to determine the experimental values of % specific binding versus the concentration of compound. Affinity data are expressed as % inhibition at 10^-5M and 10^-7M concentrations.

Experiment [2] concerns α2-GABAA receptor. The experiment can be described thus: Ligand-binding assay, competitive with radiolabeled flumazenil, spinal cord membranes. Conditions: Affinity for α2-GABAA receptor, rat spinal cord membranes, radiolabeled flumazenil 1 nM; for % Inhibition 10^−5M: 10^-5M test compound; for % Inhibition 10^−7M: 10^-7M test compound. The procedure:
as §1, §2, §3, §4, §5, §6, §7

The subject of experiment [3] is mice. The experiment can be described thus: In vivo predictive sedation-hypnosis test (inhibition of traveled distance). The arrangement: species or system mouse. As to conditions: male CD1 mice; single equimolecular intraperitoneal doses; traveled distance over 30 min after dosing (first 5 min discarded) versus control. The procedure:
In vivo determination of predictive sedative-hypnotic action.
The in vivo effects of these compounds were assessed by a predictive sedation-hypnosis test in mice (D. J. Sanger et al., Eur. J. Pharmacol., 313, 35-42, 1996; and G. Griebel et al., Psychopharmacology, 146, 205-213, 1999).
Groups of 5-8 male CD1 mice, weighing 22-26 g at the time of test, were used. The test compounds were administered in single equimolecular intraperitoneal doses, suspended in 0.25% agar with one drop of Tween in a volume of 10 mL/kg. Control animals received the vehicle alone. Using a Smart System (Panlab, S. L., Spain) the traveled distance in cm is recorded for each mouse at 5-min intervals during a period of 30 minutes after dosing. The inhibition percentage of traveled distance of treated animals versus control animals (the first 5 min were discarded) was calculated.

With `Cc1ccc(-c2nc3ccc(C)cn3c2CNC(=O)c2ccc(N(C)C)cc2)cc1` [Example 3, 4-Dimethylamino-N-(6-methyl-2-p-tolyl-imidazo[1,2-a]pyridin-3-ylmethyl)-benzamide], in experiment [1], the “% Inhibition 10^−5M” value is listed as 73.9% and the “% Inhibition 10^−7M” value came out at 21.4%. In experiment [2], the “% Inhibition 10^−5M” value turned out to be 17.4% and the “% Inhibition 10^−7M” value worked out at 0.0%. Also, the “% Inhibition Motor Activity” value in experiment [3] is given as 45.59%.
With `Cc1ccc(-c2nc3ccc(C)cn3c2CNC(=O)c2ccco2)cc1` [Example 4, Furan-2-carboxylic acid (6-methyl-2-p-tolyl-imidazo[1,2-a]pyridin-3-ylmethyl)-amide], in experiment [1], the “% Inhibition 10^−5M” value worked out at 97.4% and the “% Inhibition 10^−7M” value was 19.4%. In experiment [2], the “% Inhibition 10^−5M” value turned out to be 82.9% and the “% Inhibition 10^−7M” value is 0.0%. Besides, in experiment [3], the “% Inhibition Motor Activity” value is reported as 73.28%.
In the case of `Cc1ccc(-c2nc3ccc(C)cn3c2CNC(=O)c2ccccn2)cc1` [Example 5, Pyridine-2-carboxylic acid (6-methyl-2-p-tolyl-imidazo[1,2-a]pyridin-3-ylmethyl)-amide], the “% Inhibition 10^−5M” value came out at 99.8% in experiment [1] and 95.3% in experiment [2]. The “% Inhibition 10^−7M” value in experiment [1] was 75.5%; in experiment [2], 28.4%. In experiment [3], the “% Inhibition Motor Activity” value is recorded as 90.40%.
On the same counts, the results for `Cc1ccc(-c2nc3ccc(C)cn3c2CNC(=O)c2ccc(C)n2C)cc1` [Example 6, 1,5-Dimethyl-1H-pyrrole-2-carboxylic acid (6-methyl-2-p-tolyl-imidazo[1,2-a]pyridin-3-ylmethyl)-amide] are 96.1%, 64.4%, 22.5%, 0.0% and 78.09%.
Regarding `Cc1ccc(-c2nc3ccc(C)cn3c2CNC(=O)c2ccncc2)cc1` [Example 7, N-(6-Methyl-2-p-tolyl-imidazo[1,2-a]pyridin-3-ylmethyl)-isonicotinamide], the “% Inhibition 10^−5M” value in experiment [1] is 98.0%; in experiment [2], 81.3%. Also, the entries for the “% Inhibition 10^−7M” value in experiment [1] and in experiment [2] were 36.5% and 0.0%, respectively. Also, the “% Inhibition Motor Activity” value in experiment [3] is reported as 72.45%.
Take `COc1ccc(C(=O)NCc2c(-c3ccc(C)cc3)nc3ccc(C)cn23)cc1` [Example 11, 4-Methoxy-N-(6-methyl-2-p-tolyl-imidazo[1,2-a]pyridin-3-ylmethyl)-benzamide]: the “% Inhibition 10^−5M” value in experiment [1] amounted to 70.7%; in experiment [2] it was 6.5%. Besides, the “% Inhibition 10^−7M” value in experiment [1] amounted to 29.0%; in experiment [2], 0.0%. For the same compound, the “% Inhibition Motor Activity” value in experiment [3] is reported as 55.43%.
Take `CC(=O)c1ccc(C(=O)NCc2c(-c3ccc(C)cc3)nc3ccc(C)cn23)cc1` [Example 12, 4-Acetyl-N-(6-methyl-2-p-tolyl-imidazo[1,2-a]pyridin-3-ylmethyl)-benzamide]: in experiment [1], the “% Inhibition 10^−5M” value was found to be 73.7% and the “% Inhibition 10^−7M” value is 18.6%. In experiment [2], the “% Inhibition 10^−5M” value is on record as 19.0% and the “% Inhibition 10^−7M” value came out at 0.0%. Besides, the “% Inhibition Motor Activity” value in experiment [3] is listed as 56.84%.
On the same counts, the results for `Cc1ccc(-c2nc3ccc(C)cn3c2CNC(=O)C2CC2)cc1` [Example 13, Cyclopropanecarboxylic acid (6-methyl-2-p-tolyl-imidazo[1,2-a]pyridin-3-ylmethyl)-amide] are 97.6%, 53.8%, 67.8%, 0.0% and 90.36%.
`Cc1ccc(-c2nc3ccc(C)cn3c2CNC(=O)c2ccc([N+](=O)[O-])o2)cc1` [Example 14, 5-Nitro-furan-2-carboxylic acid (6-methyl-2-p-tolyl-imidazo[1,2-a]pyridin-3-ylmethyl)-amide]: in experiment [1], the “% Inhibition 10^−5M” value is 99.4% and the “% Inhibition 10^−7M” value is recorded as 51.4%. Further, in experiment [2], the “% Inhibition 10^−5M” value is 92.2% and the “% Inhibition 10^−7M” value came out at 26.2%. Further, the “% Inhibition Motor Activity” value in experiment [3] is reported as 89.82%.
On the same counts, the results for `Cc1ccc(-c2nc3ccc(C)cn3c2CNC(=O)c2occc2C)cc1` [Example 15, 3-Methyl-furan-2-carboxylic acid (6-methyl-2-p-tolyl-imidazo[1,2-a]pyridin-3-ylmethyl)-amide] are 74.5%, 0.0%, 41.6%, 0.0% and 80.12%.
On to `Cc1ccc(-c2nc3ccc(C)cn3c2CNC(=O)/C=C/c2ccco2)cc1` [Example 80, 3-Furan-2-yl-N-(6-methyl-2-p-tolyl-imidazo[1,2-a]pyridin-3-ylmethyl)-acrylamide], for which, in experiment [1], the “% Inhibition 10^−5M” value turned out to be 88.9% and the “% Inhibition 10^−7M” value is 0.0%. In addition, the “% Inhibition Motor Activity” value in experiment [3] is reported as 61.89%.
Take `Cc1ccc(-c2nc3ccc(C)cn3c2CNC(=O)c2ccsc2)cc1` [Example 82, Thiophene-3-carboxylic acid (6-methyl-2-p-tolyl-imidazo[1,2-a]pyridin-3-ylmethyl)-amide]: in experiment [1], the “% Inhibition 10^−5M” value is recorded as 98.7% and the “% Inhibition 10^−7M” value was 33.0%. For the same compound, the “% Inhibition Motor Activity” value in experiment [3] was 61.93%.
With `Cc1ccc(-c2nc3ccc(C)cn3c2CNC(=O)c2cc(C)n(C3CC3)c2C)cc1` [Example 84, 1-Cyclopropyl-2,5-dimethyl-1H-pyrrole-3-carboxylic acid (6-methyl-2-p-tolyl-imidazo[1,2-a]pyridin-3-ylmethyl)-amide], the “% Inhibition Motor Activity” value in experiment [3] is 36.32%.
`Cc1ccc(-c2nc3ccc(C)cn3c2CNC(=O)c2cc(F)c(Cl)cc2Cl)cc1` [Example 87, 2,4-Dichloro-5-fluoro-N-(6-methyl-2-p-tolyl-imidazo[1,2-a]pyridin-3-ylmethyl)-benzamide]: the “% Inhibition Motor Activity” value in experiment [3] is listed as 48.13%.
Take `Cc1ccc(-c2nc3ccc(C)cn3c2CNC(=O)c2csc([N+](=O)[O-])c2)cc1` [Example 88, 5-Nitro-thiophene-3-carboxylic acid (6-methyl-2-p-tolyl-imidazo[1,2-a]pyridin-3-ylmethyl)-amide]: in experiment [1], the “% Inhibition 10^−5M” value stood at 96.2% and the “% Inhibition 10^−7M” value was 0.0%. The “% Inhibition Motor Activity” value in experiment [3] is listed as 51.87%.
For `Cc1ccc(-c2nc3ccc(C)cn3c2CN(C)C(=O)c2cnccn2)cc1` [Example 96, Pyrazine-2-carboxylic acid methyl-(6-methyl-2-p-tolyl-imidazo[1,2-a]pyridin-3-ylmethyl)-amide], in experiment [1], the “% Inhibition 10^−5M” value was 99.9% and the “% Inhibition 10^−7M” value came out at 80.5%. In addition, the “% Inhibition Motor Activity” value in experiment [3] is given as 44.04%.
`Cc1ccc(-c2nc3ccc(C)cn3c2CN(C)C(=O)c2cnoc2C)cc1` [Example 99, 5-Methyl-isoxazole-4-carboxylic acid methyl-(6-methyl-2-p-tolyl-imidazo[1,2-a]pyridin-3-ylmethyl)-amide]: in experiment [1], the “% Inhibition 10^−5M” value was 99.2% and the “% Inhibition 10^−7M” value turned out to be 52.5%. Besides, the “% Inhibition Motor Activity” value in experiment [3] is on record as 13.33%.
